Test results published in ChEMBL document CHEMBL3885861, “Open TG-GATES”.

Species on record: Rattus norvegicus
Experiment: Open TG-GATES - Regimen: Daily Repeat
Assay type: toxicity, organism-based, Sprague-Dawley
Parameters: regimen Daily Repeat, gender Male, age 6 weeks
Conditions: in vivo, po, route gavage; for APTT / Bas / Eos / Fbg / Hb / Ht / Lym / MCH / MCHC / MCV / Mono / Neu / Plat / RBC / Ret / WBC / PT: tissue Blood; for KIDNEY_L / KIDNEY_R / KIDNEY_TOTAL: tissue Kidney; for ALP / ALT / AST / BUN / CRE / Ca / Cl / DBIL / GLC / IP / K / LDH / Na / PL / RALB / TBIL / TC / TG / TP / gamma-GTP: tissue Plasma
[1] = 0 mg/kg, 72 h, dose level Control, time 3 day
[2] = 0 mg/kg, […], dose level Control, time 7 day
[3] = 0 mg/kg, […], dose level Control, time 14 day
[4] = 0 mg/kg, […], dose level Control, time 28 day
[5] = 45 mg/kg, 72 h, dose level Low, time 3 day
[6] = 45 mg/kg, […], dose level Low, time 7 day
[7] = 45 mg/kg, […], dose level Low, time 14 day
[8] = 45 mg/kg, […], dose level Low, time 28 day

CC(=O)Oc1ccccc1C(=O)O [ASPIRIN]
TERMINAL_BW [1]: 238.8 g
APTT [1]: 19.3 s
Bas [1]: 0%
Eos [1]: 1%
Fbg [1]: 216.6 mg/dL
Hb [1]: 13.1 g/dL
Ht [1]: 38.5%
Lym [1]: 82%
MCH [1]: 21.2 pg
MCHC [1]: 34.2%
MCV [1]: 62.1 fL
Mono [1]: 2.4%
Neu [1]: 13.4%
Plat [1]: 121.3 x10_4/uL
RBC [1]: 620 x10_4/ul
Ret [1]: 5.9%
WBC [1]: 98.5 x10_2/uL
KIDNEY_L [1]: 1.1 g
KIDNEY_R [1]: 1.1 g
KIDNEY_TOTAL [1]: 2.1 g
ALP [1]: 970.4 IU/L
ALT [1]: 35.6 IU/L
AST [1]: 73.2 IU/L
BUN [1]: 14.8 mg/dL
CRE [1]: 0.4 mg/dL
Ca [1]: 10.8 mg/dL
Cl [1]: 102.2 meq/L
DBIL [1]: 0.082 mg/dL
GLC [1]: 203.2 mg/dL
IP [1]: 7.1 mg/dL
K [1]: 3.9 meq/L
LDH [1]: 223 IU/L
Na [1]: 140.4 meq/L
PL [1]: 148.8 mg/dL
RALB [1]: 3.4 g/dL
TBIL [1]: 0.1 mg/dL
TC [1]: 74.6 mg/dL
TG [1]: 99.2 mg/dL
TP [1]: 5.7 g/dL
gamma-GTP [1]: 1 IU/L
TERMINAL_BW [2]: 272.8 g
TERMINAL_BW [3]: 324.4 g
TERMINAL_BW [4]: 389.9 g
APTT [2]: 21.2 s
Bas [2]: 0%
Eos [2]: 1%
Fbg [2]: 211.2 mg/dL
Hb [2]: 13.7 g/dL
Ht [2]: 40.3%
Lym [2]: 85.6%
MCH [2]: 21.1 pg
MCHC [2]: 34%
MCV [2]: 62.1 fL
Mono [2]: 2%
Neu [2]: 11%
Plat [2]: 128.4 x10_4/uL
RBC [2]: 648.4 x10_4/ul
Ret [2]: 5.3%
WBC [2]: 135.5 x10_2/uL
APTT [3]: 20.2 s
Bas [3]: 0%
Eos [3]: 0.8%
Fbg [3]: 216.8 mg/dL
Hb [3]: 14.2 g/dL
Ht [3]: 40.6%
Lym [3]: 82.6%
MCH [3]: 20.8 pg
MCHC [3]: 34.9%
MCV [3]: 59.6 fL
Mono [3]: 2%
Neu [3]: 13.4%
RBC [3]: 681.6 x10_4/ul
Ret [3]: 3.4%
WBC [3]: 134.5 x10_2/uL
APTT [4]: 21.5 s
Bas [4]: 0%
Eos [4]: 1%
Fbg [4]: 210.8 mg/dL
Hb [4]: 15.7 g/dL
Ht [4]: 45.3%
Lym [4]: 81.8%
MCH [4]: 19.3 pg
MCHC [4]: 34.7%
MCV [4]: 55.6 fL
Mono [4]: 2%
Neu [4]: 13.8%
PT [4]: 12.6 s
Plat [4]: 116.7 x10_4/uL
RBC [4]: 815.4 x10_4/ul
Ret [4]: 1.8%
WBC [4]: 109 x10_2/uL
KIDNEY_L [2]: 1.2 g
KIDNEY_R [2]: 1.2 g
KIDNEY_TOTAL [2]: 2.3 g
KIDNEY_L [3]: 1.3 g
KIDNEY_R [3]: 1.3 g
KIDNEY_TOTAL [3]: 2.5 g
KIDNEY_L [4]: 1.4 g
KIDNEY_R [4]: 1.4 g
KIDNEY_TOTAL [4]: 2.8 g
ALP [2]: 844.4 IU/L
ALT [2]: 29.2 IU/L
AST [2]: 59.2 IU/L
BUN [2]: 15.8 mg/dL
CRE [2]: 0.4 mg/dL
Ca [2]: 10.7 mg/dL
Cl [2]: 102.4 meq/L
DBIL [2]: 0.096 mg/dL
GLC [2]: 210.8 mg/dL
IP [2]: 7.6 mg/dL
K [2]: 3.6 meq/L
LDH [2]: 178.2 IU/L
Na [2]: 141 meq/L
PL [2]: 137.4 mg/dL
RALB [2]: 3.4 g/dL
TBIL [2]: 0.1 mg/dL
TC [2]: 66.4 mg/dL
TG [2]: 100.2 mg/dL
TP [2]: 5.5 g/dL
gamma-GTP [2]: 0.6 IU/L
ALP [3]: 726.8 IU/L
ALT [3]: 33.4 IU/L
AST [3]: 62.2 IU/L
BUN [3]: 17.8 mg/dL
CRE [3]: 0.4 mg/dL
Ca [3]: 10.8 mg/dL
Cl [3]: 103 meq/L
DBIL [3]: 0.1 mg/dL
GLC [3]: 193.6 mg/dL
IP [3]: 7.2 mg/dL
K [3]: 3.9 meq/L
LDH [3]: 220.2 IU/L
Na [3]: 141 meq/L
PL [3]: 151.2 mg/dL
RALB [3]: 3.3 g/dL
TBIL [3]: 0.1 mg/dL
TC [3]: 67.8 mg/dL
TG [3]: 152.8 mg/dL
TP [3]: 5.8 g/dL
gamma-GTP [3]: 1 IU/L
ALP [4]: 605.4 IU/L
ALT [4]: 33.2 IU/L
AST [4]: 60.8 IU/L
BUN [4]: 17 mg/dL
CRE [4]: 0.5 mg/dL
Ca [4]: 10.1 mg/dL
Cl [4]: 103.2 meq/L
DBIL [4]: 0.1 mg/dL
GLC [4]: 213 mg/dL
IP [4]: 6.3 mg/dL
K [4]: 3.7 meq/L
LDH [4]: 150 IU/L
Na [4]: 141 meq/L
PL [4]: 132.4 mg/dL
RALB [4]: 3.4 g/dL
TBIL [4]: 0.2 mg/dL
TC [4]: 65.4 mg/dL
TG [4]: 111.6 mg/dL
TP [4]: 6 g/dL
gamma-GTP [4]: 1.2 IU/L
TERMINAL_BW [5]: 237.2 g
APTT [5]: 19.4 s
Bas [5]: 0%
Eos [5]: 0.8%
Fbg [5]: 214 mg/dL
Hb [5]: 13.7 g/dL
Ht [5]: 40.3%
Lym [5]: 81%
MCH [5]: 21.4 pg
MCHC [5]: 33.9%
MCV [5]: 62.9 fL
Mono [5]: 2.8%
Neu [5]: 13.6%
Plat [5]: 113.2 x10_4/uL
RBC [5]: 641.2 x10_4/ul
Ret [5]: 5.8%
WBC [5]: 103.1 x10_2/uL
KIDNEY_L [5]: 1.1 g
KIDNEY_R [5]: 1.1 g
KIDNEY_TOTAL [5]: 2.2 g
ALP [5]: 890.4 IU/L
ALT [5]: 45 IU/L
AST [5]: 86.4 IU/L
BUN [5]: 13.8 mg/dL
CRE [5]: 0.4 mg/dL
Ca [5]: 10.7 mg/dL
Cl [5]: 102.2 meq/L
DBIL [5]: 0.09 mg/dL
GLC [5]: 205.2 mg/dL
IP [5]: 6.8 mg/dL
K [5]: 3.8 meq/L
LDH [5]: 315.2 IU/L
Na [5]: 140.4 meq/L
PL [5]: 146.2 mg/dL
RALB [5]: 3.5 g/dL
TBIL [5]: 0.1 mg/dL
TC [5]: 71 mg/dL
TP [5]: 5.7 g/dL
gamma-GTP [5]: 0.6 IU/L
TERMINAL_BW [6]: 270.5 g
TERMINAL_BW [7]: 315.9 g
TERMINAL_BW [8]: 394.7 g
APTT [6]: 22.5 s
Bas [6]: 0%
Eos [6]: 1%
Fbg [6]: 205.8 mg/dL
Hb [6]: 13.5 g/dL
Ht [6]: 39.9%
Lym [6]: 84.2%
MCH [6]: 20.8 pg
MCHC [6]: 33.9%
MCV [6]: 61.4 fL
Mono [6]: 2.2%
Neu [6]: 12.2%
PT [6]: 12.6 s
Plat [6]: 120.9 x10_4/uL
RBC [6]: 650.4 x10_4/ul
Ret [6]: 5.3%
WBC [6]: 120.2 x10_2/uL
APTT [7]: 19.9 s
Bas [7]: 0%
Eos [7]: 1.2%
Fbg [7]: 220.6 mg/dL
Hb [7]: 14.7 g/dL
Ht [7]: 42.3%
Lym [7]: 77.2%
MCH [7]: 20.9 pg
MCHC [7]: 34.9%
MCV [7]: 59.8 fL
Mono [7]: 2%
Neu [7]: 18.2%
Plat [7]: 128.5 x10_4/uL
RBC [7]: 707.4 x10_4/ul
Ret [7]: 3.6%
WBC [7]: 138.1 x10_2/uL
APTT [8]: 20.3 s
Bas [8]: 0%
Eos [8]: 1.4%
Fbg [8]: 207.2 mg/dL
Hb [8]: 15.4 g/dL
Ht [8]: 44.6%
Lym [8]: 80.4%
MCH [8]: 19.2 pg
MCHC [8]: 34.4%
MCV [8]: 55.7 fL
Mono [8]: 2.4%
Neu [8]: 14.2%
Plat [8]: 101 x10_4/uL
RBC [8]: 801 x10_4/ul
Ret [8]: 2%
WBC [8]: 104.5 x10_2/uL
KIDNEY_L [6]: 1.2 g
KIDNEY_R [6]: 1.2 g
KIDNEY_TOTAL [6]: 2.3 g
KIDNEY_L [7]: 1.3 g
KIDNEY_R [7]: 1.3 g
KIDNEY_TOTAL [7]: 2.5 g
KIDNEY_L [8]: 1.5 g
KIDNEY_R [8]: 1.5 g
KIDNEY_TOTAL [8]: 3 g
ALP [6]: 901.6 IU/L
ALT [6]: 27.8 IU/L
AST [6]: 62.2 IU/L
BUN [6]: 16 mg/dL
CRE [6]: 0.4 mg/dL
Ca [6]: 10.6 mg/dL
Cl [6]: 102.6 meq/L
DBIL [6]: 0.096 mg/dL
GLC [6]: 219 mg/dL
IP [6]: 7.3 mg/dL
K [6]: 4.1 meq/L
LDH [6]: 213.4 IU/L
Na [6]: 140.4 meq/L
PL [6]: 140.6 mg/dL
RALB [6]: 3.2 g/dL
TBIL [6]: 0.1 mg/dL
TC [6]: 73.4 mg/dL
TG [6]: 107.4 mg/dL
TP [6]: 5.5 g/dL
gamma-GTP [6]: 0.6 IU/L
ALP [7]: 902.4 IU/L
ALT [7]: 40.6 IU/L
AST [7]: 76 IU/L
BUN [7]: 16 mg/dL
CRE [7]: 0.4 mg/dL
Ca [7]: 10.6 mg/dL
Cl [7]: 102.8 meq/L
DBIL [7]: 0.1 mg/dL
GLC [7]: 189.8 mg/dL
IP [7]: 7.1 mg/dL
K [7]: 4.2 meq/L
LDH [7]: 244 IU/L
Na [7]: 140.8 meq/L
PL [7]: 153 mg/dL
RALB [7]: 3.5 g/dL
TBIL [7]: 0.1 mg/dL
TC [7]: 71.8 mg/dL
TG [7]: 133.6 mg/dL
TP [7]: 5.8 g/dL
gamma-GTP [7]: 0.6 IU/L
ALP [8]: 733.8 IU/L
ALT [8]: 33 IU/L
AST [8]: 67.2 IU/L
BUN [8]: 17 mg/dL
CRE [8]: 0.5 mg/dL
Ca [8]: 10.3 mg/dL
Cl [8]: 102.6 meq/L
DBIL [8]: 0.094 mg/dL
GLC [8]: 232.8 mg/dL
IP [8]: 6.7 mg/dL
K [8]: 3.9 meq/L
LDH [8]: 186.2 IU/L
Na [8]: 141.2 meq/L
PL [8]: 143.2 mg/dL
RALB [8]: 3.4 g/dL
TBIL [8]: 0.2 mg/dL
TC [8]: 68.6 mg/dL
TG [8]: 125 mg/dL
TP [8]: 6.1 g/dL
gamma-GTP [8]: 0.6 IU/L
TERMINAL_BW (150 mg/kg, 72 h, dose level Middle, time 3 day): 239.9 g
